In US5834431A, “Des-Arg^9 -BK antagonists” (Cortech, Inc., priority 1995, dated 1998):
pIC50: −log10 of the molar value. Square brackets hold non-standard residues; d marks the D form. Peptide text beside a SMILES is read from it. * marks the point of attachment. Oic = O=C(O)[C@@H]1C[C@@H]2CCCC[C@@H]2N1; X1 = N=C(N)NCCC[C@@H](NC(=N)N)C(=O)*; dIgl = N[C@@H](C(=O)O)C1Cc2ccccc2C1; Gly(cPent) = N[C@H](C(=O)O)C1CCCC1; Igl = N[C@H](C(=O)O)C1Cc2ccccc2C1; Hyp = O=C(O)[C@@H]1C[C@@H](O)CN1; Tic = O=C(O)[C@@H]1Cc2ccccc2CN1; dTic = O=C(O)[C@H]1Cc2ccccc2CN1; 2Thi = N[C@@H](Cc1cccs1)C(=O)O

What was measured:
[1] = target: T1, B1 receptor (Homo sapiens, UniProt P46663); test: Human B1 binding, IL-1b-treated IMR-90 membranes, 3H-des-Arg9-Kallidin; conditions: 0.5 nM 3H-des-Arg9-Kallidin, pIC50 = -log of molar IC50
T1 construct: Human lung fibroblasts IMR-90 cells were obtained from ATCC and propagated in DMEM media; host or cells: IMR-90 human lung fibroblasts, treated with interleukin 1b three hours before harvest; membranes
T1 sequence (P46663 1-353): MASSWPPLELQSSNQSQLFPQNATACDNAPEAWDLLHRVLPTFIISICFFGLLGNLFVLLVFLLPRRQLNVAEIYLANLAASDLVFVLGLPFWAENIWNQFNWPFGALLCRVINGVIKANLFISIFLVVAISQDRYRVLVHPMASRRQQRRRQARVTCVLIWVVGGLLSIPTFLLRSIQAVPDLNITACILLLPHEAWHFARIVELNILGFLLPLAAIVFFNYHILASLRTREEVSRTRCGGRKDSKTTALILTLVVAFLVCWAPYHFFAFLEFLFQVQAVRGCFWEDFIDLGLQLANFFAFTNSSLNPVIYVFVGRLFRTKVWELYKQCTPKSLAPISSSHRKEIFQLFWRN
Experimental: (§1) Human lung fibroblasts IMR-90 cells were obtained from ATCC and propagated in DMEM media in […] roller bottles until confluent. Three hours prior to harvesting, the cells were treated with Interleukin lb (200 pg/ml). Human BK2 clones were propagated in F12 media until confluent. Preparation of membranes for binding assays was carried out by scraping cells from roller bottles in ice cold PBS and centrifuging at 1000 ×g, at 4° C. for 15 minutes. The supernatant was discarded and pellet resuspended in Buffer A consisting of 25 mM TES(pH 6.8) with 2 uM 1,10-Phenanthroline, and centrifuged at 27,000 ×g for 15 min. this was then repeated. The final pellet was resuspended in Buffer B (Buffer A with 2 uM Captopril, 140 ug/Ml Bacitracin, 0.1%BSA), and stored in 1 ml aliquots, frozen at -20° C. until needed.
(§2) Binding assays were performed by incubating human clone membranes with 0.3 nM ^3 H-Bradykinin or IMR-90 membranes with 0.5 nM ^3 H-des-Arg^9 -Kallidin in the presence of the peptides in assay buffer (Buffer B with 1 mM Dithiotreitol), at room temperature, for 45 minutes. All test compound dilutions were in triplicate. Assays were harvested by quick filtration in a Tomtec Harvester 96, with ice cold wash buffer consisting of 10 mM Tris/HCl, pH 7.5, 100 mM NaCl, 0.02%BSA, onto Wallec printed glassfiber Filtermat "B", which had been pre-soaked with 0.1% PEI and previously air-dried.

[2] = target: T2, B2 receptor (Homo sapiens, UniProt P30411); test: Human B2 binding, human BK2 clone membranes, 3H-Bradykinin; conditions: 0.3 nM 3H-Bradykinin, i.a. = inactive; for IC50: read-out: Human Binding - pIC50 B2 (converted)
T2 construct: expressed in transfected cells
T2 sequence (P30411 1-391): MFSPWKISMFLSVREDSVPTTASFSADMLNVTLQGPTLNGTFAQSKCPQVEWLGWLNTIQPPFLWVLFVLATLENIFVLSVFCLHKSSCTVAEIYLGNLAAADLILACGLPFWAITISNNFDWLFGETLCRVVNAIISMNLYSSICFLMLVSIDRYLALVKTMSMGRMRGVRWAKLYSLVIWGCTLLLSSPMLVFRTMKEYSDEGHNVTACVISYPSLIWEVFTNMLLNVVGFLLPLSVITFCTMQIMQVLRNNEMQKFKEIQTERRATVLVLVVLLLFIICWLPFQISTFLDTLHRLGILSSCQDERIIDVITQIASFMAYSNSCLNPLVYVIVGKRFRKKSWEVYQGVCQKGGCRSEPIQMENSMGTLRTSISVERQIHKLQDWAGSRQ
Experimental: as §1
as §2, with “air-dried. Filtermats were counted in 9.5 mls Wallec Beta-Plate Scint, in Wallec 1450 MicroBeta Counter.” for “air-dried.”

[3] = target: T3, B2 receptor (Cavia porcellus, UniProt O70526); test: GPI binding B2; conditions: i.a. = inactive; for IC50: read-out: GPI Binding - pIC50 B2 (converted)
T3 construct: from tissue
T3 sequence (O70526 1-372): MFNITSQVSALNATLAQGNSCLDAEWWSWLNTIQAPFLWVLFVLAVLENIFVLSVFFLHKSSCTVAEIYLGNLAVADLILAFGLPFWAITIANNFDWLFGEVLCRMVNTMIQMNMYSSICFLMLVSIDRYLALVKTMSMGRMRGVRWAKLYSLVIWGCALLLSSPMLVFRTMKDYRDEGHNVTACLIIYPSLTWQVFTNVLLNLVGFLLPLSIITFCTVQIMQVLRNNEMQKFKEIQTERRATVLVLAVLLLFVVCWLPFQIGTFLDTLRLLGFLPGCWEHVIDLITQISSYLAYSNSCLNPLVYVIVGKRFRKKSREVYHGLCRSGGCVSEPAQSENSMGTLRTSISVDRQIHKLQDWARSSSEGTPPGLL

[4] = target: T4, BK1 (hypotensive response to desArg9BK) (Canis lupus familiaris, UniProt Q9BDQ5); test: In vivo inhibition of hypotensive response to desArg9BK in anaesthetized dogs; design: species or system Mongrel dogs; conditions: dog, infusion; dose of antagonist to inhibit hypotensive response to desArg9BK by 50%
T4 construct: Mongrel dogs of either sex, weight range 10-15 kg were used; from tissue; host or cells: whole anaesthetized mongrel dog (in vivo blood pressure)
T4 sequence (Q9BDQ5 1-350): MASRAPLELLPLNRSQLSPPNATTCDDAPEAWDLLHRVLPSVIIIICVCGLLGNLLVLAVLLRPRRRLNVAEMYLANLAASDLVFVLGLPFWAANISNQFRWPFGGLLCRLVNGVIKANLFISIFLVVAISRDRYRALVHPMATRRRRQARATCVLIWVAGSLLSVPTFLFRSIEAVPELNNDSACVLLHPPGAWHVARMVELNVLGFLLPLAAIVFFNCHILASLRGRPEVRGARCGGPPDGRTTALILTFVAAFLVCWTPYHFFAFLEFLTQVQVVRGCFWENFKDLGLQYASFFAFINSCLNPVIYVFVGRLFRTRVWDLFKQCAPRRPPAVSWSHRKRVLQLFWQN
Experimental: Mongrel dogs of either sex, weight range 10-15 kg were used. These were anaesthesized with pentobarbitone, 30 mg/kg i.v. and catheters placed in one femoral artery and both femoral veins for the recording of blood pressure and infusion and injection of compounds. […] After the end of the infusion of the highest dose of the antagonist compound, BK and des-Arg^9 -BK were injected at intervals for up to four hours.

| Compound | pIC50 [1] | IC50 [2] | IC50 [3] | Human Binding - pIC50 B2 [2] | GPI Binding - pIC50 B2 [3] | BK1 ED50 [4] |
| --- | --- | --- | --- | --- | --- | --- |
| N=C(N)NCCC[C@@H](N)C(=O)N[C@@H](CCCNC(=N)N)C(=O)N1CCC[C@H]1C(=O)N1C[C@H](O)C[C@H]1C(=O)NCC(=O)N[C@H](C(=O)N[C@@H](CO)C(=O)N1Cc2ccccc2C[C@H]1C(=O)N[C@H](C(=O)O)C1CCCC1)C1CCCC1 [B9004, DArg-Arg-Pro-Hyp-Gly-Cpg-Ser-Tic-Cpg] (H-[dR]RP[Hyp]G[Gly(cPent)]S[Tic][Gly(cPent)]-OH) | 8.50 | 1580 nM | 6310 nM |  |  |  |
| N=C(N)NCCC[C@@H](N)C(=O)N[C@@H](CCCNC(=N)N)C(=O)N1CCC[C@H]1C(=O)N1C[C@H](O)C[C@H]1C(=O)NCC(=O)N[C@@H](Cc1cccs1)C(=O)N[C@@H](CO)C(=O)N1Cc2ccccc2C[C@H]1C(=O)N[C@H](C(=O)O)C1CCCC1 [B9006, DArg-Arg-Pro-Hyp-Gly-Thi-Ser-Tic-Cpg] (H-[dR]RP[Hyp]G[2Thi]S[Tic][Gly(cPent)]-OH) | 7.90 | 631 nM | 10000 nM |  |  |  |
| N=C(N)NCCC[C@@H](N)C(=O)N[C@@H](CCCNC(=N)N)C(=O)N1CCC[C@H]1C(=O)N1C[C@H](O)C[C@H]1C(=O)NCC(=O)N[C@@H](Cc1cccs1)C(=O)N[C@@H](CO)C(=O)N1Cc2ccccc2C[C@@H]1C(=O)N[C@H](C(=O)O)C1CCCC1 [B9068, DArg-Arg-Pro-Hyp-Gly-Thi-Ser-DTic-Cpg] (H-[dR]RP[Hyp]G[2Thi]S[dTic][Gly(cPent)]-OH) | 8.80 | 2000 nM | 7940 nM |  |  |  |
| CC(C)C[C@H](NC(=O)[C@@H]1CCCN1C(=O)[C@H](CO)NC(=O)[C@H](Cc1ccccc1)NC(=O)CNC(=O)[C@@H]1CCCN1C(=O)[C@@H]1CCCN1C(=O)[C@H](CCCNC(=N)N)NC(=O)[C@H](CCCCN)NC(=O)CNC(=N)N)C(=O)O [B9810] |  |  |  | i.a | i.a |  |
| CC(C)C[C@H](NC(=O)[C@H](NC(=O)[C@H](CO)NC(=O)[C@@H](NC(=O)CNC(=O)[C@@H]1C[C@@H](O)CN1C(=O)[C@@H]1CCCN1C(=O)[C@@H](N)CCCNC(=N)N)C1Cc2ccccc2C1)C1Cc2ccccc2C1)C(=O)O [B9814, Arg-Pro-Hyp-Gly-Igl-Ser-DIgl-Leu] (H-RP[Hyp]G[Igl]S[dIgl]L-OH) | 8.20 |  |  | i.a | i.a |  |
| CC(C)C[C@H](NC(=O)[C@H](NC(=O)[C@H](CO)NC(=O)[C@@H](NC(=O)CNC(=O)[C@@H]1C[C@@H](O)CN1C(=O)[C@@H]1CCCN1C(=O)[C@H](CCCNC(=N)N)NC(=O)[C@H](N)CCCNC(=N)N)C1Cc2ccccc2C1)C1Cc2ccccc2C1)C(=O)O [B9816, DArg-Arg-Pro-Hyp-Gly-Igl-Ser-DIgl-Leu] (H-[dR]RP[Hyp]G[Igl]S[dIgl]L-OH) | 8.90 | 631 nM | 2000 nM |  |  |  |
| N=C(N)NCCC[C@H](NC(=O)[C@@H](CCCNC(=N)N)NC(=N)N)C(=O)N1CCC[C@H]1C(=O)N1C[C@H](O)C[C@H]1C(=O)NCC(=O)N[C@@H](Cc1cccs1)C(=O)N[C@@H](CO)C(=O)N[C@@H](C(=O)N1[C@H](C(=O)O)C[C@@H]2CCCC[C@@H]21)C1Cc2ccccc2C1 [B9826, Gun- DArg-Arg-Pro-Hyp-Gly-Thi-Ser-DIgl-Oic] (X1-RP[Hyp]G[2Thi]S[dIgl][Oic]-OH) | 9.90 | 7.94 nM | 79.4 nM |  |  |  |
| N=C(N)NCCC[C@@H](N)C(=O)N[C@@H](CCCNC(=N)N)C(=O)N1CCC[C@H]1C(=O)N1C[C@H](O)C[C@H]1C(=O)NCC(=O)N[C@H](C(=O)N[C@@H](CO)C(=O)N1Cc2ccccc2C[C@@H]1C(=O)N[C@H](C(=O)O)C1CCCC1)C1Cc2ccccc2C1 [B9840, DArg-Arg-Pro-Hyp-Gly-Igl-Ser-DTic-Cpg] (H-[dR]RP[Hyp]G[Igl]S[dTic][Gly(cPent)]-OH) | 9.10 | 631 nM |  |  | i.a |  |
| N=C(N)NCCC[C@H](NC(=O)[C@@H](N)CCCCN)C(=O)N1CCC[C@H]1C(=O)N1C[C@H](O)C[C@H]1C(=O)NCC(=O)N[C@H](C(=O)N[C@@H](CO)C(=O)N1Cc2ccccc2C[C@@H]1C(=O)N[C@H](C(=O)O)C1CCCC1)C1Cc2ccccc2C1 [B9842, Lys-Arg-Pro-Hyp-Gly-Igl-Ser-DTic-Cpg] (H-KRP[Hyp]G[Igl]S[dTic][Gly(cPent)]-OH) | 9.60 | 631 nM |  |  | i.a. |  |
| N=C(N)NCCC[C@H](NC(=O)[C@H](CCCCN)NC(=O)[C@@H](N)CCCCN)C(=O)N1CCC[C@H]1C(=O)N1C[C@H](O)C[C@H]1C(=O)NCC(=O)N[C@H](C(=O)N[C@@H](CO)C(=O)N[C@@H](C(=O)N1[C@H](C(=O)O)C[C@@H]2CCCC[C@@H]21)C1Cc2ccccc2C1)C1Cc2ccccc2C1 [B9858, Lys- Lys-Arg-Pro-Hyp-Gly-Igl-Ser-DIgl-Oic] |  | 20 nM | 126 nM |  |  | 0.03 ± 0.01 µg/kg/min |
